# Assays:
# [1] = target: T1, Cathepsin B (Homo sapiens, UniProt P07858); assay: Second-order rate constants of inhibition (kobs/[I]), cathepsin B; assay type: biochemical; parameters: made in house; details: Figure 4D; Cy5- and BODIPY-labeled probes
# Protocol: (§1) All kinetic studies were performed using an fMax fluorescence plate reader (Molecular Devices) in kinetic mode with 96- or 384-well plates. ACC fluorescence was monitored at excitation and emission wavelengths of 355 and 460 nm, respectively. Recombinant human cysteine cathepsins L, V, B, K, and S were expressed and purified as previously described. Prior to use, all cysteine cathepsins were titrated with E64 to normalize enzymatic activity. Assays for cathepsins were conducted in 100 mM sodium acetate buffer containing 10 mM NaCl and 10 mM DTT (pH 5.5). Breast cancer cell lysates (BT-474, MCF-7, MDA-MB-231) were prepared by culturing cells to confluence in the appropriate media, replacing media with PBS, and harvesting the cells using a cell scraper (without trypsin). The cells were pelleted by centrifugation (400 × g, 5 min), resuspended in PBS, and centrifuged again under the same conditions. After removal of the supernatant, the pellet was resuspended in cathepsin assay buffer (excluding DTT) and sonicated. Lysates were then clarified by centrifugation (12,000 × g, 5 min), and the supernatants were collected and stored at −80 °C until use. All enzymatic assays, including HyCoSuL library screening and kinetic analyses of synthetic substrates, inhibitors, probes and prodrugs, were conducted at 37 °C and repeated at least three times. Mean values are reported. Kinetic data were analyzed using GraphPad Prism software (version 10.4.1).
# (§2) The second-order rate constants of inhibition (k obs/[I]) were determined for human recombinant cathepsins S, B, L, and V using their respective assay buffers. All measurements were performed under pseudo-first-order kinetic conditions, as previously described. Inhibitors or ABPs were serially diluted in assay buffer and transferred to a 96-well plate. Each well was supplemented with the fluorogenic substrate Cbz-Phe-Arg-AMC at a final concentration of 25 μM and preincubated for 15 min. In parallel, enzymes were preactivated in assay buffer for 15 min at room temperature. Following preincubation, the activated enzymes were added to the wells, and fluorescence was monitored immediately for 30 min. The k obs/[I] values (M^-1S^-1) were calculated from the progress curves and averaged from at least three independent experiments. Final inhibitor (or ABP) concentrations were maintained at a minimum of 5-fold excess relative to enzyme concentrations to ensure pseudo-first-order conditions. Results were analyzed in GraphPad Prism and are reported as mean ± standard deviation.
# [2] = target: T2, Cathepsin S (Homo sapiens, UniProt P25774); assay: SDS-PAGE profiling of cathepsin labeling by OG-233 ABP; assay type: biochemical; details: cathepsins 10 nM; probe 10, 100, 500 nM; 30 min
# T2 construct: made in house
# Protocol: Subsequently, each enzyme preparation was incubated with OG-233 at final probe concentrations of 10 nM, 100 nM, and 500 nM for 30 min in a total reaction volume of 200 μL. After incubation, 100 μL of 3× SDS loading buffer containing DTT was added to each sample. The mixtures were boiled for 5 min, and 20 μL of each sample was loaded onto 4−12% Bis-Tris Plus gels (15-well format). Electrophoresis was performed at 200 V for 30 min alongside 2 μL of PageRuler Prestained Protein Ladder. Following separation, the gels were scanned directly at 700 nm (Cy5 fluorescence channel, excitation 685 nm) using a Sapphire biomolecular imager (Azure Biosystems). Band intensities corresponding to labeled cathepsins were quantified using Image Studio software.
# [3] = target: T3, Cathepsin V (Homo sapiens, UniProt O60911); assay: Second-order rate constants of inhibition (kobs/[I]), cathepsin V; assay type: biochemical; details: Figure 4D; Cy5- and BODIPY-labeled probes
# T3 construct: made in house
# Protocol: as §1, §2
# [4] = target: T2, Cathepsin S; assay: Second-order rate constants of inhibition (kobs/[I]), cathepsin S; assay type: biochemical
# Protocol: as §1, §2
# [5] = target: T1, Cathepsin B; assay: Labeling of cathepsin B in MDA-MB-231 live cells with Cy5 probes; assay type: cell-based; parameters: endogenous in cells; host or cells: MDA-MB-231; details: cellular environments; probe labeling
# Protocol: (§3) 50,000 of MDA-MB-231 cells were seeded into 12-well plate and allowed to attach overnight. The next day, OG-233 and OG-234 probes (1 μM final concentration) were added to the cells and incubated for various times (from 0,5 h up to 24 h). Control cells were preincubated with cathepsin S inhibitors (JN1, JN4, JN7) at 25 μM for 2 h, and then incubated with OG-233 or OG-234 probes for 24 h. Next, cells were harvested and prepared for SDS-PAGE analysis as described in the above section. Electrophoresis was run for 25 min (4−12% Bis-Tris Plus 10-well gel, 200 V). Next, proteins were transferred onto the membrane (0.2 μm nitrocellulose membrane, 10 V, 60 min) and Ponceau S was used to verify equal loading and transfer. Membranes were then blocked with 5% BSA in TBS-T buffer for 1 h at RT. Membranes were next incubated anticathepsin S antibody (1:1,000, overnight, 4 °C), and the next day with a secondary antibody (IRDye 800CW, donkey anti-Goat) for 30 min at RT, and scanned at 680 and 800 nm using the Sapphire biomolecular imager (Azure Biosystems) to detect the Cy5 probes and cathepsin S. All images were analyzed with Image Studio software.
# [6] = target: T4, active cathepsin S in MDA-MB-231 live cells (Homo sapiens, UniProt P25774); assay: Labeling of active cathepsin S in MDA-MB-231 live cells with Cy5 probes; assay type: cell-based; details: probe 1 μM, 0,5 to 24 h
# T4 construct: endogenous in cells; host or cells: MDA-MB-231
# Protocol: as §3
# [7] = target: T5, Cathepsin L (Homo sapiens, UniProt P07711); assay: Second-order rate constants of inhibition (kobs/[I]), cathepsin L; assay type: biochemical; details: Figure 4D; Cy5- and BODIPY-labeled probes
# T5 construct: made in house
# Protocol: as §1, §2
# T2 sequence (P25774 115-331): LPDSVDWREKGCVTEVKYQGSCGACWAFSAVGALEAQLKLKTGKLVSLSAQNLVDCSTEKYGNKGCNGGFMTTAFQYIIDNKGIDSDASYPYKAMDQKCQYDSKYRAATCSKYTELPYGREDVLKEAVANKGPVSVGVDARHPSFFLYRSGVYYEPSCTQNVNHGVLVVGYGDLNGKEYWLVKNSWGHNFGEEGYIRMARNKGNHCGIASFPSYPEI
# T4 sequence (P25774 115-331): as above
# T3 sequence (O60911 114-334): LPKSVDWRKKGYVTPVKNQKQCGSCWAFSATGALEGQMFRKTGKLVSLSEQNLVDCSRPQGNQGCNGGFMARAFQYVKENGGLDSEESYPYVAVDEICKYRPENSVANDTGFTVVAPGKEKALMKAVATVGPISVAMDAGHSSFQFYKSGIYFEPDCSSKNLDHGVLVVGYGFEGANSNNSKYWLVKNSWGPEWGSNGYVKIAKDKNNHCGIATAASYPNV
# T5 sequence (P07711 114-333): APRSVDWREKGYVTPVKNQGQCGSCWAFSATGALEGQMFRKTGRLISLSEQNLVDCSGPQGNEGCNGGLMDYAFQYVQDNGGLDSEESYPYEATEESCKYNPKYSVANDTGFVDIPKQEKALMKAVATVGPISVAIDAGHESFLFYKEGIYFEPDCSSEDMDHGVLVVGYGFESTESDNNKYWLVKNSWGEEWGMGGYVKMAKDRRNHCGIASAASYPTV
substance,measurement,setting,value
Cy5-PEG(4)-Phe(F5)-Cit-Lys(2ClZ)-Glu(Me)-AOMK [OG-233],kobs/[I] Cath B,[1],"8,520 M^-1s^-1"
same,labeling of recombinant cathepsins (fluorescent gel scanning),[2],labeled recombinant cathepsin S over other cathepsins
same,kobs/[I] Cath V,[3],460 M⁻¹ s⁻¹
same,kobs/[I] Cath S,"[4]; Figure 4D, Cy5- and BODIPY-labeled probes","1,537,000 M^-1s^-1"
same,Selectivity S to B,"[4]; Figure 4D, calculated from kobs/[I], cathepsin S over cathepsin B",180
same,Selectivity S to L,"[4]; Figure 4D, calculated from kobs/[I], cathepsin S over cathepsin L","2,700"
same,Selectivity S to V,"[4]; Figure 4D, calculated from kobs/[I], cathepsin S over cathepsin V","3,340"
same,higher potency than the unlabeled parent inhibitor,"[4]; cathepsin S kobs/[I], probe vs parent inhibitor",over 2 fold
same,selectivity for cathepsin S over cathepsin L,[4]; kobs/[I] based,> 2000 fold
same,selectivity for cathepsin S over cathepsin V,[4]; kobs/[I] based,> 500 fold
same,off-target labeling of cathepsin B in cells,[5],minor off-target labeling of cathepsin B
same,detection of active cathepsin S in living cells,[6],able to detect active cathepsin S as soon as upon 3 h incubation
same,kobs/[I] Cath L,[7],570 M⁻¹ s⁻¹

# Source: article PMC13403234, “Engineering Cathepsin S Selective Chemical Probes and Antibody−Drug Conjugates through Substrate Profiling with Unnatural Amino Acids” (Journal of Medicinal Chemistry, 2026)
